# Measured values reported in paper PMC5656322, “BAK1 is involved in AtRALF1-induced inhibition of root cell expansion” (PLoS Genetics, 2017).
# Where no end group is shown, it is not given here.
# How the values were obtained:
# BAK1-GFP = assay: BAK1 protein accumulation, protein blot anti-GFP; assay type: in vivo, Arabidopsis thaliana; settings: pBAK1:BAK1-GFP plants, 1 μM
# Protocol: Fig 4 The BAK1 gene is induced by AtRALF1. (A) BAK1 gene expression in the roots of Arabidopsis seedlings (10-days-old) treated with AtRALF1. Root tissues were collected 1 h after treatment. Semi-quantitative RT-PCR and qRT-PCR were performed using total RNA extracted from the roots of untreated (-) or treated (+) plants. GAPDH expression was used as an internal control. (B) Quantification of GFP fluorescence intensity. The values are the mean ± SD of 20 seedlings. Student’s t test was used to compare the values obtained from treated and untreated seedlings. Double asterisk indicates P < 0.05 (Student’s t test); ns, not significant. (C) Representative confocal images of pBAK1:BAK1-GFP seedlings (4 days old) treated with 1 μM AtRALF1. Images were captured 4 h after treatment and were obtained by scanning 10 slices over a distance of 7 μm. MZ, meristematic zone; EZ, elongation zone; DZ, Differentiation zone. Bars, 100 μm. (D) pBAK1:BAK1-GFP plants were treated with water or 1 μM AtRALF1. After treatment, protein extracts from pBAK1:BAK1-GFP roots were subjected to immunoblot analysis with anti-GFP antibody. Ponceau was used to show equal loading of protein.
# BAK7 (BAK7-ECD) = assay: Yeast two-hybrid with BAK7-ECD; assay type: binding, Arabidopsis thaliana; settings: yeast AH109, medium lacking Leu, Trp, His
# Excerpt: (§1) Fig 6 AtRALF1 interacts physically with BAK1 protein. (A) The active AtRALF1 peptide interacts with the extracellular domain (ECD) of BAK1 (BAK1-ECD) in yeast. The AtRALF1 protein fused to the GAL4 DNA-binding domain (AtRALF1-pGBKT7) was used as bait to test its interaction with the extracellular domain of the proteins fused to the GAL4 activation domain (pGADT7): BAK1 (BAK1-ECD), BAK7 (BAK7-ECD), BRI1 (BRI1-ECD) and FLS2 (FLS2-ECD). (B) Blueprint showing the truncated proteins from the extracellular domain of BAK1 tested in the two-hybrid assay. The extracellular domain of BAK1 comprises leucine zippers (LZ), 5 leucine rich-regions (LRRs) and a proline-rich region (pro-rich). (C) AtRALF1-pGBKT7 was used as bait to test its interaction with truncated proteins fused to the GAL4 activation domain (pGADT7). […] HA-BAK1-ECD was detected with an anti-HA antibody. AtRALF1 was detected with an anti-RALF antibody. […] BAK1-GFP was detected with an anti-GFP antibody. […]
# (§2) The coding regions of the mature peptides AtRALF1 and AtRALF34 were amplified from Arabidopsis genomic DNA and fused to the GAL4 DNA-binding domain and the MYC epitope tag using the NdeI/BamHI sites in the pGBKT7 (Clontech) vector. […] The proteins fused to the HA and MYC epitope tags were detected by protein blotting. […]
# BRI1 (BRI1-ECD) = assay: Yeast two-hybrid with BRI1-ECD; assay type: binding, Arabidopsis thaliana; settings: yeast AH109, medium lacking Leu, Trp, His
# Excerpt: as §1, §2
# [1] = test system: truncated proteins from the extracellular domain of BAK1; assay: Yeast two-hybrid with truncated BAK1-ECD; assay type: binding, Arabidopsis thaliana
# Excerpt: Fig 6 AtRALF1 interacts physically with BAK1 protein. (A) The active AtRALF1 peptide interacts with the extracellular domain (ECD) of BAK1 (BAK1-ECD) in yeast. The AtRALF1 protein fused to the GAL4 DNA-binding domain (AtRALF1-pGBKT7) was used as bait to test its interaction with the extracellular domain of the proteins fused to the GAL4 activation domain (pGADT7): BAK1 (BAK1-ECD), BAK7 (BAK7-ECD), BRI1 (BRI1-ECD) and FLS2 (FLS2-ECD). (B) Blueprint showing the truncated proteins from the extracellular domain of BAK1 tested in the two-hybrid assay. The extracellular domain of BAK1 comprises leucine zippers (LZ), 5 leucine rich-regions (LRRs) and a proline-rich region (pro-rich). (C) AtRALF1-pGBKT7 was used as bait to test its interaction with truncated proteins fused to the GAL4 activation domain (pGADT7). The transformed yeast cells in (A) and (C) were selected on a synthetic complete medium lacking leucine, tryptophan and histidine to test interactions. (D, E) Co-immunoprecipitation (Co-IP) in vitro between the extracellular domain of BAK1 (HA-BAK1-ECD) and AtRALF1 recombinant purified proteins. HA-BAK1-ECD was detected with an anti-HA antibody. AtRALF1 was detected with an anti-RALF antibody. (F) Recombinant AtRALF1 is co-immunoprecipitated with the BAK1-GFP protein expressed in tobacco. BAK1-GFP was detected with an anti-GFP antibody. […] (G) Isothermal titration calorimetry (ITC) of the extracellular domain of BAK1 (BAK1-ECD) vs. AtRALF1 in ITC buffer (15 mM HEPES, pH 6.8). ITC experiments were simulated using 28 injections of BAK1-ED (0.7 mM, vol 10 μL) on AtRALF1 (0.03 mM vol cell = 1.4 mL) at 25°C. […]
# as §2
# Supplementary file pgen.1007053.s012.pdf: S12 Fig Analyses of protein extracts from yeast. […] The proteins were monitored using an anti-HA antibody. […]
# [2] = test system: cytosolic Ca^2+ in Arabidopsis seedlings; settings: from extra- and intracellular stores; ref [1],[11]; cited from earlier work
substance,measurement,setting,value
AtRALF1: root-specific RALF isoform in Arabidopsis; recombinant peptide hormone produced in E. coli (ATTKYISYQSLKRNSVPCSRRGASYYNCQNGAQANPYSRGCSKIARCRS; ends and bridges not checked; cysteine pairing not given here),BAK1 protein accumulation,BAK1-GFP,BAK1 protein accumulation was also verified by protein blot
same,interaction with BAK7-ECD (Y2H complementation),BAK7 (BAK7-ECD),able to complement only the BAK1-ECD construct
same,interaction with BRI1-ECD (Y2H complementation),BRI1 (BRI1-ECD),able to complement only the BAK1-ECD construct
same,interaction with truncated BAK1-ECD,[1]; 12 truncated proteins,only two that interacted with AtRALF1: Leu zippers + LRR1 + LRR2 + LRR3 and Leu zippers + LRR1 + LRR2
same,interaction with BAK1-ECD lacking Pro-rich region and LRR5,[1]; C-terminal deletion,abolished the interaction
same,interaction with N-terminal deletions of BAK1-ECD,[1]; deletions from N-terminal,None of the deletions from N-terminal were able to interact with AtRALF1
same,cytoplasmic Ca^2+,[2],rapid increase in cytoplasmic Ca^2+
